Results taken from patent publication US20030133913A1, “Methods of maturing plasmacytoid dendritic cells using immune response modifier molecules” (3M Innovative Properties Company, priority 2001, published 2003).

System: plasmacytoid dendritic cells
Assay: Enhanced survival of isolated pDCs, cell viability by flow cytometry
Assay type: cell-based, human
Conditions: 48 hours after treatment with IRM (3 μM) versus without IRM; FIG. 4
Experimental: Human pDCs were isolated from PBMC by immunomagnetic bead positive selection according to the manufacturer's instructions (Miltenyi Biotec, Inc., Auburn, Calif.). Briefly, PBMC were incubated with pDC-specific antibodies, BDCA-2 or BDCA-4, and the labeled cells were collected with a Miltenyi LS column. The positively selected cells were resuspended in X-Vivo 20 medium. Isolated pDCs were obtained as described in Example 2. The isolated pDCs were incubated in with and without IRM. Cell viability was measured in both cultures by flow cytometry after 24 hours and again after 48 hours. […] Pairwise comparisons of IRM-treated cells to the control group were performed using the Dunnett adjustment to preserve the overall 0.05 level of significance. If there were discrepancies between the 2 methods, the results from the arcsin transformed data were reported.

**Q.** `CCOCc1nc2c(N)nc3ccccc3c2n1CC(C)(C)O` [IRM, 4-amino-2-ethoxymethyl-α,α-dimethyl-1H-imidazo[4,5-c]quinoline-1-ethanol] was tested. Which “pDC survival (percent viable)” value did it give?
**A.** statistically significant higher rate of survival
